US20120046329A1, “MODULATORS OF NOD1 AND NOD2 SIGNALING, METHODS OF IDENTIFYING MODULATORS OF NOD1 AND NOD2 SIGNALING, AND USES THEREOF” (Sanford-Burnham Medical Research Institute, priority 2010, published 2012)
Where two headings read alike, the source gives them in different places.

T1: NOD1 (Homo sapiens, UniProt Q9Y239)
T1 sequence (Q9Y239 1-953): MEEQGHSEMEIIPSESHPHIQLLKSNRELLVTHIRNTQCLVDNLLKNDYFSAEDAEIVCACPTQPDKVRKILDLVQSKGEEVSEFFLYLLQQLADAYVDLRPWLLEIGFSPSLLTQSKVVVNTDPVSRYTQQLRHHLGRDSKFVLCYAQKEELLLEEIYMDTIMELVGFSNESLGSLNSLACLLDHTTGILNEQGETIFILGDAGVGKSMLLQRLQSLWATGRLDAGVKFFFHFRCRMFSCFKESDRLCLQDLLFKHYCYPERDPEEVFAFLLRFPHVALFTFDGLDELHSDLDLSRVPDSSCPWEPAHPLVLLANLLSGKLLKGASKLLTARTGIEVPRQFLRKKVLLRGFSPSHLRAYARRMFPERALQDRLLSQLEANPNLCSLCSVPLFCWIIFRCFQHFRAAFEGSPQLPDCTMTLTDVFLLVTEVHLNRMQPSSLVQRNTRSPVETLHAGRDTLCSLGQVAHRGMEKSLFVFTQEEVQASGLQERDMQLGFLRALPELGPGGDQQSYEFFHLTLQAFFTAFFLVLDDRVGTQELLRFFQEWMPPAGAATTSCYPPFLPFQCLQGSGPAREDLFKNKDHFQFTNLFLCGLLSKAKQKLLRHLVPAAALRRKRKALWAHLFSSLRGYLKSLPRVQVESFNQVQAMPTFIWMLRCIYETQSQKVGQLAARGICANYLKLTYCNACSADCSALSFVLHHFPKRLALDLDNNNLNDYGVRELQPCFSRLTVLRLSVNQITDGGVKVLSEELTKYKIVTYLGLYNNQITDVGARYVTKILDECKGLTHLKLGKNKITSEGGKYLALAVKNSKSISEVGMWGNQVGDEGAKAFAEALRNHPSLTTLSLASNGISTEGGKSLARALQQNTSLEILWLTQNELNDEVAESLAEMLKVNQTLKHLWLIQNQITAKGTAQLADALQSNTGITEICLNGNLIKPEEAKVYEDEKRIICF


Legend:
TNF-α induced NF-κB = assay: TNF-α-induced NF-κB luciferase reporter counterscreen, HEK293T; format: cell-based, human; conditions: Homo sapiens, HEK-293T
NOD1 = target: T1, NOD1; assay: NOD1 NF-κB luciferase reporter assay, γ-tri-DAP-stimulated HEK293T cells; conditions: for Effect on NOD-driven NF-κB reporter gene activity: data not shown
NOD2 = NOD2 (Homo sapiens, UniProt Q9HC29); assay: NOD2 NF-κB luciferase reporter assay, HEK293T cells over-expressing NOD2; format: cell-based; parameters: expressed in transfected cells; host or cells: HEK293T NF-κB-luciferase cells, lentiviral transduction, sorted by EGFP
NOD2, sequence (Q9HC29 whole entry): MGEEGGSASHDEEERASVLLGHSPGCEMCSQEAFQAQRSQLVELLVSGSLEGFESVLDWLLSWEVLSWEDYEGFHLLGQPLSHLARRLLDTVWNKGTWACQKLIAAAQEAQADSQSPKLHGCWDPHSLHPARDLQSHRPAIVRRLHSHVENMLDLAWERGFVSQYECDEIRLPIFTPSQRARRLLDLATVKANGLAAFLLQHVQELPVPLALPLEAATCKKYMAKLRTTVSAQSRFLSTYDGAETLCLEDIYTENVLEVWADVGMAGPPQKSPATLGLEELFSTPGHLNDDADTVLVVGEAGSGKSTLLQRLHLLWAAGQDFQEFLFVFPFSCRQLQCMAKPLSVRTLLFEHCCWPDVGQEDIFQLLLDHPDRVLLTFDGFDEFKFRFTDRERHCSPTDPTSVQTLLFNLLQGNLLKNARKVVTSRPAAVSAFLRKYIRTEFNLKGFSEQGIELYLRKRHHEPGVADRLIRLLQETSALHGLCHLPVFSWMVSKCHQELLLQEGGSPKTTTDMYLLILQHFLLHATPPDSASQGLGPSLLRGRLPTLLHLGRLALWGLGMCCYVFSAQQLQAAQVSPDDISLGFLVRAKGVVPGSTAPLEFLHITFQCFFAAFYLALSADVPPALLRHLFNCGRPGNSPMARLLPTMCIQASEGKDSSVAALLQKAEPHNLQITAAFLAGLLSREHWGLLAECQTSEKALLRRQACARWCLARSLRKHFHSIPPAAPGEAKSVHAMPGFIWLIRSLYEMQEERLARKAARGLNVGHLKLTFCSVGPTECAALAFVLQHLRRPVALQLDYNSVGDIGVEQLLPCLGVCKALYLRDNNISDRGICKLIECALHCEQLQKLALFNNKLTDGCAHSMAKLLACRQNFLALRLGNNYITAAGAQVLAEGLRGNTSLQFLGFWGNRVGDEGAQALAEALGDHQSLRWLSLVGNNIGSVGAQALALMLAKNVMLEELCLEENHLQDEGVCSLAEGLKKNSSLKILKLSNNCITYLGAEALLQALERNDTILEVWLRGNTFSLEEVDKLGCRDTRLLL

XIAP/RIP2 interaction = target: T2, XIAP/RIP2 interaction (Homo sapiens, UniProt P98170); assay: GST-XIAP pull-down of FLAG-RIP2 in vitro; format: binding
T2 construct: made in house; FLAG-RIP2: transfected HEK293T lysate
T2 sequence (P98170 whole entry): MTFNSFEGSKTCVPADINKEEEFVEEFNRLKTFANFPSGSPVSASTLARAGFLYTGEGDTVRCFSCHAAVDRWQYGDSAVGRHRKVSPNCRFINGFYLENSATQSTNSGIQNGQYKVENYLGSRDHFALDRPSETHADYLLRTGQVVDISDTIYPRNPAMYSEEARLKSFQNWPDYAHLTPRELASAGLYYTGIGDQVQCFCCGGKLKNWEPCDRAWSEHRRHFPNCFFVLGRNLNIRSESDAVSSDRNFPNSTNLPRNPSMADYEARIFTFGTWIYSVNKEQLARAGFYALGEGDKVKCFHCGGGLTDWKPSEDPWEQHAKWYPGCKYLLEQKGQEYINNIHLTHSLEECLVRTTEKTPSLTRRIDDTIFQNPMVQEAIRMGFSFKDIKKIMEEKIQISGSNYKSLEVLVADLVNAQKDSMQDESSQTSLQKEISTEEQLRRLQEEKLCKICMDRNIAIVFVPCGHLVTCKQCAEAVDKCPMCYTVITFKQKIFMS
Method: (A) Schematic representation of GFP-XIAP mutants. (B) Transfected HEK293T cells expressing FLAG-RIP2 together with GFP-XIAPWT, GFPXIAPE219R, GFP-XIAPH223V, GFP-XIAPE219R/H223V or GFP-control were lysed and subjected to immunoprecipitation using anti-FLAG antibody. Immunoprecipitates were analyzed by SDS/PAGE/immunoblotting using anti-FLAG and anti-GFP antibodies. Protein binding was quantified by densitometry analysis, measuring the integrated density value expressed as arbitrary units of the GFP-XIAP bands. Values are expressed as mean±SD of three independent experiments. […] Beads were analyzed by immunoblotting using anti-FLAG-HRP, anti-XIAP/anti-GST or anti-SMAC antibodies as indicated. An aliquot of lysates was also directly analyzed by immunoblotting (“input”).
In another set of experiments, for immunoprecipitation (IP), cells were lysed in IP buffer [20 mM iris pH 7.5, 135 mM NaCl, 1 mM EDTA or 1 mM EGTA (for binding assays involving NODS), 0.5% Nonidet P-40, 10% glycerol, 10 mM NaF, 1 mM DTT, 2 mM Na3VO4, 20 μM leupeptin, 1 mM PMSF, 20 mM N-ethylmaleimide, 0.5 μM iodoacetic acid, 1× protease inhibitor mix (Roche Applied Science)]. […] After incubation overnight bound immune complexes were washed four times in IP buffer, boiled in 2× Laemmli buffer and analyzed by SDS/PAGE and immunoblotted using various antibodies as specifically indicated. […]

[1] = TNF-α-stimulated NF-κB luciferase, HEK293T, read-out: TNF-α IC50

| IC50 (NOD1) [µM] | IC50 (NOD2) [µM] | Molecule | IC50 (TNF-α induced NF-κB; [1]) [µM] | also measured |
| --- | --- | --- | --- | --- |
| > 25 |  | Nc1nc2ccccc2n1S(=O)(=O)c1cccc(OC(F)(F)F)c1 [Compound 33] | > 100 |  |
| 3.3 |  | CC(C)(C)c1cccc(S(=O)(=O)n2c(N)nc3ccccc32)c1 [Compound 35] | 15.6 |  |
| 1.6 | 4.7 | Cc1ccc(S(=O)(=O)n2c(N)nc3cc(C(F)(F)F)ccc32)cc1 [Compound 20] | 2.3 |  |
| 1.3 |  | CCCc1cccc(S(=O)(=O)n2c(N)nc3ccccc32)c1 [Compound 34] | > 100 |  |
| 0.8 | 0.6 | Nc1nc2ccccc2n1S(=O)(=O)c1ccc2c(c1)CCC2 [Compound 17] | > 25 |  |
|  | > 20 | CC(C)c1ccc(S(=O)(=O)n2c(N)nc3ccccc32)cc1 [Compound 12] | > 20 |  |
| 12.4 |  | Nc1nc2ccccc2n1S(=O)(=O)c1cccc(C(F)(F)F)c1 [Compound 32] | > 100 |  |
|  | > 20 | Nc1nc2ccccc2n1S(=O)(=O)c1ccc(Cl)c(Cl)c1 [Compound 14] | > 20 |  |
| 3 | 7.6 | CCOC(=O)c1ccc2nc(N)n(S(=O)(=O)c3ccc(C)cc3)c2c1 [Compound 25] | > 25 |  |
| 9.3 | 15 | Cc1ccc(S(=O)(=O)n2c(N)nc3cc(C)ccc32)cc1 [Compound 18] | > 25 |  |
| 14.5 |  | COc1cccc(S(=O)(=O)n2c(N)nc3ccccc32)c1 [Compound 36] | > 100 |  |

More lines, now with the values behind:

| Molecule | IC50 (NOD1) [µM] | IC50 (NOD2) [µM] | IC50 (TNF-α induced NF-κB; [1]) [µM] | also measured |
| --- | --- | --- | --- | --- |
| Cc1ccc(S(=O)(=O)n2c(N)nc3ccc(F)cc32)cc1 [Compound 23] | 6.2 | > 25 | > 25 |  |
| Cc1ccc(S(=O)(=O)n2c(N)nc3c(N)cccc32)cc1 [Compound 26] | 17.5 | 12.8 | > 25 |  |
| Cc1ccc(S(=O)(=O)n2c(CNC=O)nc3ccccc32)cc1 [Compound 27] | 10.9 | 15.6 | 8.4 |  |
| Cc1ccc(S(=O)(=O)n2c(NCCCO)nc3ccccc32)cc1 [Compound 28] | 12.1 | > 25 | > 25 |  |
| Nc1nc2ccccc2n1S(=O)(=O)c1ccc(-c2ccccc2)cc1 [Compound 39] | 1.5 |  |  | IC50 (TNF-α induced NF-κB; read-out: TNF-α IC50(μM)): 4.2 µM |
| Nc1nc2ccccc2n1S(=O)(=O)c1cccs1 [Compound 16] | 11 | > 25 | 6.6 |  |
| C=CCNC1=C2C[C@@H](C)C[C@H](OC)[C@H](O)[C@@H](C)/C=C(\C)[C@H](OC(N)=O)[C@@H](OC)C=C/C=C(\C)C(=O)NC(=CC1=O)C2=O [Compound 17-AGG, reference compound] |  |  |  | Effect on NOD-driven NF-κB reporter gene activity (NOD1): suppress |
| COc1ccc2c(c1)nc(N)n2S(=O)(=O)c1ccc(C)cc1 [Compound 24] | 1.9 | 3.1 | > 25 |  |
| COc1ccc(-c2ccc(S(=O)(=O)n3c(N)nc4ccccc43)cc2)cc1 [Compound 40] |  |  | 5.2 |  |
| Nc1nc2ccccc2n1S(=O)(=O)c1cc(Cl)c(Cl)s1 [Compound 37] | 2.2 |  | 18.4 |  |
| Nc1nc2ccccc2n1S(=O)(=O)c1ccc(F)cc1 [Compound 13] |  | > 20 | > 20 |  |
| Nc1nc2ccccc2n1S(=O)(=O)c1cccc(Br)c1 [Compound 31] | 3.5 |  |  | IC50 (TNF-α induced NF-κB; read-out: TNF-α IC50(μM)): > 100 µM |
| Cc1ccc(S(=O)(=O)n2c(N)nc3cc(F)ccc32)cc1 [Compound 22] | 1.8 | > 25 | > 25 |  |
| Cc1ccc(S(=O)(=O)n2c(N)nc3ccc(C(F)(F)F)cc32)cc1 [Compound 21] | 3.9 | 10 | 12.3 |  |
| C[n+]1cc2c3c(ccc2c2ccc4cc5c(cc4c21)OCO5)OCO3 [sanguinarine, reference compound] |  |  |  | inhibition at 4 µM (NOD1; HEK-293T, read-out: Luciferase inhibition, hit cut-off): ≥ 50% |
| Nc1nc2ccccc2n1S(=O)(=O)c1ccccc1 [Compound 4] |  |  |  | IC50 (TNF-α induced NF-κB; read-out: TNF-α IC50(μM)): > 20 µM |
| Cc1cccc(S(=O)(=O)n2c(N)nc3ccccc32)c1 [Compound 29] | 3.8 |  | > 100 |  |
| Cc1ccc(S(=O)(=O)n2cnc3ccccc32)cc1 [Compound 6] |  |  |  | IC50 (TNF-α induced NF-κB; read-out: TNF-α IC50(μM)): > 20 µM |
| Nc1nc2ccccc2n1S(=O)(=O)c1ccc(OC(F)(F)F)cc1 [Compound 11] |  | > 20 | > 20 |  |
| COC1=C2C[C@@H](C)C[C@H](OC)[C@H](O)[C@@H](C)/C=C(\C)[C@H](OC(N)=O)[C@@H](OC)/C=C\C=C(/C)C(=O)NC(=CC1=O)C2=O [geldanomycin, reference compound] |  |  |  | Effect on NOD-driven NF-κB reporter gene activity (NOD1): suppress |
| Nc1nc2ccccc2n1S(=O)(=O)c1ccc([N+](=O)[O-])cc1 [Compound 5] |  |  |  | IC50 (TNF-α induced NF-κB; read-out: TNF-α IC50(μM)): > 20 µM |
| SMAC protein: recombinant SMAC protein, dimeric, binds BIR2 and BIR3 domains of XIAP (protein, UniProt Q9NR28 22-239, looked up, His6 tag) Diablo IAP-binding …: LCVPVVANFKKRCFSELIRPWHKTVTIGFGVTLCAVPIAQKSEPHSLSSEALMRRAVSLVTDSTSTFLSQTTYALIEAITEYTKAVYTLTSLYRQYTSLLGKMNSEEEDEVWQVIIGARAEMTSKHQEYLKLETTWMTAVGLSEMAAEAAYQTGADQASITARNHIQLVKLQVEEVHQLSRKAETKLAEAQIEELRQKTQEEGEERAESEQEAYLRED |  |  |  | Effect on XIAP/RIP2 interaction in vitro (XIAP/RIP2 interaction): concentration-dependent inhibition |
